Literature values as cited in US7241583B2, “TRL1 as an antifungal target” (Oxford Glycosciences (UK) Ltd, priority 2002, dated 2007).

Settings: mice; DOX 2 mg/ml in 5% sucrose solution as drinking water, approx. 5 ml per day

concentration of DOX in kidney: > 10 mg/g of kidney
concentration of DOX in liver: > 8 mg/g of liver
concentration of DOX in serum: more than 2 mg/ml of serum
SMILES: C[C@H]1c2cccc(O)c2C(O)=C2C(=O)[C@]3(O)C(O)=C(C(N)=O)C(=O)[C@@H](N(C)C)[C@@H]3[C@@H](O)[C@@H]21 [DOX, doxycycline]
